Source: the NIST ThermoML archive (doi:10.1016/j.jct.2012.02.007)
Numbers after ± are expanded uncertainties.

Experiments:
[1] = osmotic coefficient (dimensionless); mn = molality of the nth substance listed, in mol/kg; settings: 323.15 K, Liquid, Vapor Pressure Osmometer
[2] = mn = molality of the nth substance listed, in mol/kg; settings: 101.3 kPa, Liquid; for speed of sound: Sing-around technique in a fixed-path interferometer; for mass density: Vibrating tube method

Compound `CCCCn1cc[n+](C)c1.N#CN=C=[N-]` [1-butyl-3-methylimidazolium dicyanamide] + CC(C)O has an osmotic coefficient ([1]; m1 = 0.0572) of 0.973 ± 0.012, an osmotic coefficient ([1]; m1 = 0.0884) of 0.925 ± 0.012 and an osmotic coefficient ([1]; m1 = 0.1125) of 0.905 ± 0.012. For the same compound, the osmotic coefficient ([1]; m1 = 0.2169) was 0.838 ± 0.013, the osmotic coefficient ([1]; m1 = 0.3275) was 0.795 ± 0.014 and the osmotic coefficient ([1]; m1 = 0.4213) was 0.77 ± 0.015. For the same compound, the osmotic coefficient ([1]; m1 = 0.5065) was 0.757 ± 0.015, the osmotic coefficient ([1]; m1 = 0.8172) was 0.712 ± 0.016 and the osmotic coefficient ([1]; m1 = 1.153) was 0.682 ± 0.016. The osmotic coefficient ([1]; m1 = 1.6) was 0.665 ± 0.017, the osmotic coefficient ([1]; m1 = 2.049) was 0.641 ± 0.017 and the osmotic coefficient ([1]; m1 = 2.416) was 0.619 ± 0.018. The osmotic coefficient ([1]; m1 = 2.863) was 0.592 ± 0.019, the osmotic coefficient ([1]; m1 = 3.314) was 0.565 ± 0.02 and the speed of sound ([2]; 293.15 K, m1 = 0.0497) was 1163.1 ± 0.8 m/s. For the same compound, the speed of sound ([2]; 293.15 K, m1 = 0.1012) was 1167.4 ± 0.9 m/s, the speed of sound ([2]; 293.15 K, m1 = 0.1541) was 1171.9 ± 0.9 m/s and the speed of sound ([2]; 293.15 K, m1 = 0.2003) was 1175.6 ± 0.9 m/s. It also gave a speed of sound ([2]; 293.15 K, m1 = 0.2521) of 1179.7 ± 0.9 m/s, a speed of sound ([2]; 293.15 K, m1 = 0.5105) of 1199.3 ± 0.9 m/s and a speed of sound ([2]; 293.15 K, m1 = 0.7616) of 1216.7 ± 0.9 m/s. For the same compound, the speed of sound ([2]; 293.15 K, m1 = 1.016) was 1233.3 ± 1 m/s, the speed of sound ([2]; 293.15 K, m1 = 1.264) was 1248.4 ± 1 m/s and the speed of sound ([2]; 293.15 K, m1 = 1.523) was 1263.4 ± 1.1 m/s. The speed of sound ([2]; 293.15 K, m1 = 1.784) was 1278 ± 1.1 m/s, the speed of sound ([2]; 293.15 K, m1 = 2.022) was 1289.6 ± 1.1 m/s and the speed of sound ([2]; 293.15 K, m1 = 2.519) was 1312.7 ± 1.2 m/s. It also gave a speed of sound ([2]; 293.15 K, m1 = 3.014) of 1333.7 ± 1.2 m/s, a speed of sound ([2]; 293.15 K, m1 = 3.553) of 1356 ± 1 m/s and a mass density ([2]; 293.15 K, m1 = 0.0497) of 788.07 ± 0.13 kg/m3. For the same compound, the mass density ([2]; 293.15 K, m1 = 0.1012) was 790.54 ± 0.13 kg/m3, the mass density ([2]; 293.15 K, m1 = 0.1541) was 793.01 ± 0.13 kg/m3 and the mass density ([2]; 293.15 K, m1 = 0.2003) was 795.12 ± 0.13 kg/m3. It also gave a mass density ([2]; 293.15 K, m1 = 0.2521) of 797.4 ± 0.13 kg/m3, a mass density ([2]; 293.15 K, m1 = 0.5105) of 808.27 ± 0.13 kg/m3 and a mass density ([2]; 293.15 K, m1 = 0.7616) of 817.89 ± 0.13 kg/m3. For the same compound, the mass density ([2]; 293.15 K, m1 = 1.016) was 826.92 ± 0.14 kg/m3, the mass density ([2]; 293.15 K, m1 = 1.264) was 835.03 ± 0.14 kg/m3 and the mass density ([2]; 293.15 K, m1 = 1.523) was 843.01 ± 0.15 kg/m3. For the same compound, the mass density ([2]; 293.15 K, m1 = 1.784) was 850.52 ± 0.16 kg/m3, the mass density ([2]; 293.15 K, m1 = 2.022) was 856.61 ± 0.16 kg/m3 and the mass density ([2]; 293.15 K, m1 = 2.519) was 868.38 ± 0.18 kg/m3. It also gave a mass density ([2]; 293.15 K, m1 = 3.014) of 878.91 ± 0.2 kg/m3, a mass density ([2]; 293.15 K, m1 = 3.553) of 889.91 ± 0.22 kg/m3 and a speed of sound ([2]; 308.15 K, m1 = 0.0497) of 1110.6 ± 0.8 m/s. For the same compound, the speed of sound ([2]; 308.15 K, m1 = 0.1012) was 1115.4 ± 0.8 m/s, the speed of sound ([2]; 308.15 K, m1 = 0.1541) was 1120.2 ± 0.8 m/s and the speed of sound ([2]; 308.15 K, m1 = 0.2003) was 1124.1 ± 0.9 m/s. It also gave a speed of sound ([2]; 308.15 K, m1 = 0.2521) of 1128.4 ± 0.9 m/s, a speed of sound ([2]; 308.15 K, m1 = 0.5105) of 1148.9 ± 0.9 m/s and a speed of sound ([2]; 308.15 K, m1 = 0.7616) of 1167 ± 0.9 m/s. For the same compound, the speed of sound ([2]; 308.15 K, m1 = 1.016) was 1184.4 ± 1 m/s, the speed of sound ([2]; 308.15 K, m1 = 1.264) was 1200 ± 1 m/s and the speed of sound ([2]; 308.15 K, m1 = 1.523) was 1215.6 ± 1 m/s. The speed of sound ([2]; 308.15 K, m1 = 1.784) was 1230.6 ± 1.1 m/s, the speed of sound ([2]; 308.15 K, m1 = 2.022) was 1242.8 ± 1.1 m/s and the speed of sound ([2]; 308.15 K, m1 = 2.519) was 1266.6 ± 1.2 m/s. It also gave a speed of sound ([2]; 308.15 K, m1 = 3.014) of 1288.3 ± 1.2 m/s, a speed of sound ([2]; 308.15 K, m1 = 3.553) of 1311.2 ± 1.3 m/s and a mass density ([2]; 308.15 K, m1 = 0.0497) of 775.35 ± 0.13 kg/m3. It also gave a mass density ([2]; 308.15 K, m1 = 0.1012) of 777.9 ± 0.13 kg/m3, a mass density ([2]; 308.15 K, m1 = 0.1541) of 780.44 ± 0.13 kg/m3 and a mass density ([2]; 308.15 K, m1 = 0.2003) of 782.61 ± 0.13 kg/m3. It also gave a mass density ([2]; 308.15 K, m1 = 0.2521) of 784.94 ± 0.13 kg/m3, a mass density ([2]; 308.15 K, m1 = 0.5105) of 796.04 ± 0.13 kg/m3 and a mass density ([2]; 308.15 K, m1 = 0.7616) of 805.84 ± 0.14 kg/m3. It also gave a mass density ([2]; 308.15 K, m1 = 1.016) of 815.02 ± 0.14 kg/m3, a mass density ([2]; 308.15 K, m1 = 1.264) of 823.26 ± 0.15 kg/m3 and a mass density ([2]; 308.15 K, m1 = 1.523) of 831.36 ± 0.15 kg/m3. The mass density ([2]; 308.15 K, m1 = 1.784) was 838.97 ± 0.16 kg/m3, the mass density ([2]; 308.15 K, m1 = 2.022) was 845.16 ± 0.17 kg/m3 and the mass density ([2]; 308.15 K, m1 = 2.519) was 857.09 ± 0.18 kg/m3. The mass density ([2]; 308.15 K, m1 = 3.014) was 867.77 ± 0.2 kg/m3, the mass density ([2]; 308.15 K, m1 = 3.553) was 878.92 ± 0.22 kg/m3 and the speed of sound ([2]; 323.15 K, m1 = 0.0497) was 1057.6 ± 0.8 m/s. The speed of sound ([2]; 323.15 K, m1 = 0.1012) was 1062.8 ± 0.8 m/s, the speed of sound ([2]; 323.15 K, m1 = 0.1541) was 1067.8 ± 0.8 m/s and the speed of sound ([2]; 323.15 K, m1 = 0.2003) was 1072 ± 0.8 m/s. It also gave a speed of sound ([2]; 323.15 K, m1 = 0.2521) of 1076.6 ± 0.9 m/s, a speed of sound ([2]; 323.15 K, m1 = 0.5105) of 1098.1 ± 0.9 m/s and a speed of sound ([2]; 323.15 K, m1 = 0.7616) of 1117.1 ± 0.9 m/s. The speed of sound ([2]; 323.15 K, m1 = 1.016) was 1135.3 ± 1 m/s, the speed of sound ([2]; 323.15 K, m1 = 1.264) was 1151.6 ± 1 m/s and the speed of sound ([2]; 323.15 K, m1 = 1.523) was 1167.9 ± 1 m/s. The speed of sound ([2]; 323.15 K, m1 = 1.784) was 1183.3 ± 1.1 m/s, the speed of sound ([2]; 323.15 K, m1 = 2.022) was 1196.1 ± 1.1 m/s and the speed of sound ([2]; 323.15 K, m1 = 2.519) was 1220.9 ± 1.2 m/s. It also gave a speed of sound ([2]; 323.15 K, m1 = 3.014) of 1243.4 ± 1.2 m/s, a speed of sound ([2]; 323.15 K, m1 = 3.553) of 1267 ± 1.3 m/s and a mass density ([2]; 323.15 K, m1 = 0.0497) of 761.85 ± 0.13 kg/m3. It also gave a mass density ([2]; 323.15 K, m1 = 0.1012) of 764.5 ± 0.1 kg/m3, a mass density ([2]; 323.15 K, m1 = 0.1541) of 767.13 ± 0.13 kg/m3 and a mass density ([2]; 323.15 K, m1 = 0.2003) of 769.37 ± 0.13 kg/m3. It also gave a mass density ([2]; 323.15 K, m1 = 0.2521) of 771.79 ± 0.13 kg/m3, a mass density ([2]; 323.15 K, m1 = 0.5105) of 783.22 ± 0.14 kg/m3 and a mass density ([2]; 323.15 K, m1 = 0.7616) of 793.27 ± 0.14 kg/m3. For the same compound, the mass density ([2]; 323.15 K, m1 = 1.016) was 802.67 ± 0.14 kg/m3, the mass density ([2]; 323.15 K, m1 = 1.264) was 811.1 ± 0.2 kg/m3 and the mass density ([2]; 323.15 K, m1 = 1.523) was 819.36 ± 0.15 kg/m3. The mass density ([2]; 323.15 K, m1 = 1.784) was 827.12 ± 0.16 kg/m3, the mass density ([2]; 323.15 K, m1 = 2.022) was 833.43 ± 0.17 kg/m3 and the mass density ([2]; 323.15 K, m1 = 2.519) was 845.59 ± 0.19 kg/m3. The mass density ([2]; 323.15 K, m1 = 3.014) was 856.45 ± 0.2 kg/m3 and the mass density ([2]; 323.15 K, m1 = 3.553) was 867.79 ± 0.22 kg/m3.
